From patent publication US20220031738A1, “IRON FORMULATIONS FOR TOPICAL ADMINISTRATION AND METHODS OF TREATMENT OF IRON DEFICIENCY” (DYVE BIOSCIENCES, INC., priority 2018, published 2022)

Key:
Type in all cases: in vivo
[1] = tested on: Anemic human patients with progressive renal insufficiency; test: Topical vs oral vs intravenous iron supplementation in anemic patients with progressive renal insufficiency treated with erythropoietin
Procedure: In this experiment, iron (in the form of ferrous sulfate) in formulations of the invention was tested for its ability to treat anemia in patients with progressive renal insufficiency, and compared to orally or intravenously delivered iron supplementation.
In vivo tests were performed as follows: Anemic human patients with progressive renal insufficiency were treated with either topical, oral or intravenous iron supplementation and evaluated at baseline, 3 months and 6 months. Trial design was built to assess these primary outcomes: hemoglobin response, serum ferritin levels, changes in red cell hypochromasia, and incidence of adverse events. Treatment groups randomized as follows: • Oral iron supplement group (ferrous sulphate 200 mg tds) • Intravenous iron supplement group (300 mg iron sucrose monthly) • Topical iron supplement group (3.34 g of topical formulation applied tds) Formulations detailed below in Table 1 • In all groups Erythropoietin (rHuEpo) treatment was simultaneously commenced.

[2] = tested on: human iron-depleted, nonanemic women; test: Topical vs oral iron to improve endurance after training in iron-depleted, nonanemic women; details: oral = ferrous sulfate 100 mg per day
Procedure: In this experiment, iron (in the form of ferrous sulfate) in formulations of the invention was tested for its ability to help improve endurance after training in iron-depleted, nonanemic women and compared to orally delivered iron supplementation.
In vivo tests were performed as follows: human iron-depleted (serum ferritin <16 μg/l), nonanemic (Hb >12 g/dl) women (18-33 yr old) were treated with either topical or oral iron supplementation for 6 weeks. Subjects trained for 30 min/day, 5 days/wk at 75-85% of maximum heart rate for the final 4 wk of the study. Trial design was built to assess this primary outcome: change in 15 km time from baseline to […]. Treatment groups randomized as follows: • a. Control group: oral placebo • b. Oral iron supplement group (100 mg of ferrous sulfate per day) • c. Topical iron supplement group (1.67 g of topical formulation applied daily) Formulations detailed in Table 6 below

[3] = tested on: human IBD patients with anemia; test: Topical vs oral vs intravenous iron for anemia in inflammatory bowel disease
Procedure: In this experiment, iron (in the form of ferrous sulfate) in formulations of the invention was tested for its ability to help treat anemia in inflammatory bowel disease (IBD) patients and compared to orally or intravenously delivered iron supplementation.
In vivo tests were performed as follows: human IBD patients with anemia were treated with either topical, oral or intravenous iron supplementation for 12 weeks. Trial design was built to assess this primary outcome: change in hemoglobin (Hb) from baseline to week 12. Treatment groups randomized as follows: • a. Oral iron supplement group (FeSulf containing 100 mg ferrous iron (II). Patients received one capsule b.i.d. for 12 wk) • b. Intravenous iron supplement group (ferric carboxymaltose (FeCarb) 50 mg ferric iron (III) per milliliter in water with individual patient dosage calculated according to the formula of Ganzoni) • c. Topical iron supplement group (1.67 g of topical formulation applied b.i.d.) Formulations detailed in Table 5 below

[4] = tested on: Anemic human patients with progressive renal insufficiency; test: Topical vs oral vs intravenous iron for iron deficiency in non-hemodialysis-dependent patients with chronic kidney disease; details: oral = ferrous sulphate 325 mg thrice daily; intravenous ferric carboxymaltose; topical = 5.42 g Table 2 formulation tds
Procedure: In this experiment, iron (in the form of ferrous sulfate) in formulations of the invention was tested for its ability to treat iron deficiency in non-hemodialysis dependent patients with chronic kidney disease, and compared to orally or intravenously delivered iron supplementation.
In vivo tests were performed as follows: Anemic human patients with progressive renal insufficiency were treated with either topical, oral or intravenous iron supplementation. Trial design was built to assess these primary outcomes: hemoglobin response, and incidence of adverse events. Treatment groups randomized as follows: • a. Oral iron supplement group (ferrous sulphate 325 mg thrice daily for a total of 195 mg elemental iron daily) • b. Intravenous iron supplement group (intravenous ferric carboxymaltose 1000 mg over 15 min (with up to two additional doses of 500 mg at 2-week intervals)) • c. Topical iron supplement group (5.42 g of topical formulation applied tds) Formulations detailed in Table 2 below.

[5] = tested on: Anemic pregnant human patients; test: Topical vs oral vs intravenous iron for anemia in pregnancy
Procedure: In this experiment, iron (in the form of ferrous sulfate) in formulations of the invention was tested for its ability to treat anemia in pregnant patients, and compared to orally or intravenously delivered iron supplementation.
In vivo tests were performed as follows: Anemic pregnant human patients were treated with either topical, oral or intravenous iron supplementation during 14 to 34 weeks of pregnancy. Trial design was built to assess these primary outcomes: haemoglobin and serum ferritin levels. Treatment groups randomized as follows: • a. Oral iron supplement group (200 mg of ferrous fumarate per day) • b. Intravenous iron supplement group (200 mg of iron sucrose was administered in 100 ml 0.9% sodium chloride per day) • c. Topical iron supplement group (3.34 g of topical formulation applied per day) Formulations detailed in Table 3 below

[6] = tested on: human patients with chemotherapy-related anemia; test: Topical vs oral vs intravenous iron in anemic cancer patients receiving darbepoetin alfa; details: 8 weeks, with darbepoetin alfa 500 mcg every 3 weeks; oral = sucrosomial iron 30 mg daily; IV = ferric gluconate 125 mg weekly; topical = 0.50 g Table 4 formulation daily
Procedure: In this experiment, iron (in the form of ferrous sulfate) in formulations of the invention was tested for its ability to help treat chemotherapy-induced anemia in cancer patients when combined with erythropoiesis-stimulating agents (ESAs), and compared to orally or intravenously delivered iron supplementation. […] Trial design was built to assess this primary outcome: Hb response as defined as the Hb increase ≥2 g/dL from baseline or the attainment Hb ≥12 g/dL. Treatment groups randomized as follows: • a. Oral iron supplement group (sucrosomial iron 30 mg daily) • b. […] Topical iron supplement group (0.50 g of topical formulation applied daily) Formulations detailed in Table 4 below

For O=S(=O)([O-])[O-].[Fe+2] [ferrous sulphate], the “allergic reactions reported, share of patients” value ([1]; oral = ferrous sulphate, intravenous = iron sucrose, transdermal = Table 1 formulation) was “none”, the “decrease in 15-km time vs the placebo control group” value ([2]; topical = 1.67 g Table 6 formulation daily) was “statistically significantly greater” and the “decrease in 15-km time, oral versus transdermal” value ([2]; transdermal = 1.67 g Table 6 formulation daily) was “no statistical difference”.

ferric carboxymaltose was tested, and the “median Hb after treatment (week 12)” value ([3]; 12 weeks, same arms as E16) was 12.3 g/dL, the “median Hb at baseline” value ([3]; before treatment, oral = FeSulf 100 mg ferrous iron b.i.d., IV = ferric carboxymaltose (Ganzoni dose), topical = 1.67 g Table 5 formulation b.i.d.) was 8.7 g/dL and the treatment-related adverse events [4] was 2.7%.

With O=C([O-])/C=C/C(=O)[O-].[Fe+2] [ferrous fumarate] the “participants with an improvement in hemoglobin more than 20 g/L” value ([5]; same arms as E9) was 11%.

With iron sucrose the change in hemoglobin ([5]; pregnant women, 14 to 34 weeks of pregnancy, oral = ferrous fumarate 200 mg per day, intravenous = iron sucrose 200 mg per day, topical = 3.34 g Table 3 formulation per day) was 22 ± 11.5 g/L, the “patients with increase in ferritin level between 51 to 100 ng/ml” value ([5]; same arms as E9) was 48% and the “serum ferritin levels versus oral” value ([1]; comparator oral ferrous sulphate 200 mg tds, intravenous = iron sucrose 300 mg monthly, topical = 3.34 g Table 1 formulation tds) was “statistical significantly higher”. The “allergic reactions reported, share of patients” value ([1]; human, in vivo) was 10% and the “serum ferritin levels, topical versus intravenous” value ([1]; intravenous = iron sucrose 300 mg monthly, topical = 3.34 g Table 1 formulation tds) was “not statistically different”.

With ferric gluconate the “patients achieving an erythropoietic (Hb) response: Hb increase ≥2 g/dL from baseline or Hb ≥12 g/dL” value [6] was “Seventy one”.
